From the supplement of paper PMC11451515

Tests used:
Conditions in all cases: 48 h
[1] = test system: SEM cells; test: AUC of viability dose-response curve (% viability x log10 dose units); higher = less sensitive
Summary of the method: (§1)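 Leukemia cells adapted to each medium were seeded in 1536-well plates (500 or 1000 cells/well). They were dosed with library compounds in DMSO at 11 threefold doses, 47 μM to 0.79 nM, for 48 h at 37°C. CellTiter-Glo One luminescence was normalised per plate to DMSO and cell-free wells. Area under the curve was integrated by trapezoidal rule over log10 doses on a four-parameter log-logistic fit; curves exceeding full viability were scaled and curves failing quality control removed.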

[2] = test system: NOMO1; test: as above
Summary of the method: as §1

[3] = test system: P12-Ichikawa; test: as above
Summary of the method: as §1

[4] = test system: SEM cells; test: cell viability relative to DMSO control; higher = less cytotoxic
Summary of the method: (§2)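 Viability is expressed as a percentage of DMSO wells within each plate, and cell-free wells serve as background. Seeding densities in the 1536-well plates (5 μl) were 500 cells/well for NOMO1 or SEM leukemia cells and 1000 cells/well for P12-Ichikawa. Each line was adapted for at least four passages in each medium. Library compounds in DMSO were pin-dosed at 47 μM to 0.79 nM (11 points, threefold), and CellTiter-Glo One luminescence was read after 48 h at 37°C.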

[5] = test system: NOMO1; test: as above
Summary of the method: as §2

[6] = test system: P12-Ichikawa; test: as above
Summary of the method: as §2

Cc1cc2c(C(C)C)c(O)c(O)c(C=O)c2c(O)c1-c1c(C)cc2c(C(C)C)c(O)c(O)c(C=O)c2c1O
AUC of viability dose-response curve
Conditions | [1] | [2] | [3]
HPLM + 10% dialyzed FBS | 459 | 445 | 453
RPMI 5 mM glucose + 10% FBS | 447 | 449 | 451
RPMI 5 mM glucose + 10% dialyzed FBS | 444 | 452 | 452

cell viability [%]
Conditions | [4] | [5] | [6]
HPLM + 10% dialyzed FBS, 0.000781 µM | 107 | 122 | 113
HPLM + 10% dialyzed FBS, 0.00234 µM | 114 | 123 | 111
HPLM + 10% dialyzed FBS, 0.00702 µM | 105 | 135 | 111
HPLM + 10% dialyzed FBS, 0.0211 µM | 113 | 137 | 113
HPLM + 10% dialyzed FBS, 0.0632 µM | 112 | 115 | 108
HPLM + 10% dialyzed FBS, 0.19 µM | 101 | 107 | 99.6
HPLM + 10% dialyzed FBS, 0.569 µM | 116 | 116 | 108
HPLM + 10% dialyzed FBS, 1.71 µM | 101 | 105 | 104
HPLM + 10% dialyzed FBS, 5.12 µM | 99.2 | 105 | 102
HPLM + 10% dialyzed FBS, 15.4 µM | 110 | 100 | 98.1
HPLM + 10% dialyzed FBS, 46.1 µM | 27.6 | 50.8 | 17.1
RPMI 5 mM glucose + 10% FBS, 0.000781 µM | – | 100 | 117
RPMI 5 mM glucose + 10% FBS, 0.00234 µM | – | 116 | 125
RPMI 5 mM glucose + 10% FBS, 0.00702 µM | – | 104 | 127
RPMI 5 mM glucose + 10% FBS, 0.0211 µM | – | 109 | 121
RPMI 5 mM glucose + 10% FBS, 0.0632 µM | – | 107 | 119
RPMI 5 mM glucose + 10% FBS, 0.19 µM | – | 106 | 106
RPMI 5 mM glucose + 10% FBS, 0.569 µM | – | 115 | 117
RPMI 5 mM glucose + 10% FBS, 1.71 µM | – | 97.1 | 101
RPMI 5 mM glucose + 10% FBS, 5.12 µM | – | 98.5 | 112
RPMI 5 mM glucose + 10% FBS, 15.4 µM | – | 92.8 | 106
RPMI 5 mM glucose + 10% FBS, 46.1 µM | – | 12 | 10.6
RPMI 5 mM glucose + 10% dialyzed FBS, 0.000781 µM | 106 | 115 | 116
RPMI 5 mM glucose + 10% dialyzed FBS, 0.00234 µM | 123 | 115 | 124
RPMI 5 mM glucose + 10% dialyzed FBS, 0.00702 µM | 120 | 114 | 118
RPMI 5 mM glucose + 10% dialyzed FBS, 0.0211 µM | 109 | 121 | 116
RPMI 5 mM glucose + 10% dialyzed FBS, 0.0632 µM | 112 | 114 | 111
RPMI 5 mM glucose + 10% dialyzed FBS, 0.19 µM | 113 | 102 | 109
RPMI 5 mM glucose + 10% dialyzed FBS, 0.569 µM | 117 | 103 | 110
RPMI 5 mM glucose + 10% dialyzed FBS, 1.71 µM | 103 | 106 | 104
RPMI 5 mM glucose + 10% dialyzed FBS, 5.12 µM | 106 | 110 | 110
RPMI 5 mM glucose + 10% dialyzed FBS, 15.4 µM | 90 | 94.6 | 100
RPMI 5 mM glucose + 10% dialyzed FBS, 46.1 µM | 6.54 | 27.5 | 22

COC(=O)N1CCN(Cc2cccc(NC(=O)Nc3ccc(C)nc3)c2F)CC1
AUC of viability dose-response curve
Conditions | [1] | [2] | [3]
HPLM + 10% dialyzed FBS | 470 | 418 | 458
RPMI 5 mM glucose + 10% FBS | 464 | 434 | 434
RPMI 5 mM glucose + 10% dialyzed FBS | 448 | 434 | 408

cell viability [%]
Conditions | [4] | [5] | [6]
HPLM + 10% dialyzed FBS, 0.000781 µM | 96.1 | 115 | 94.8
HPLM + 10% dialyzed FBS, 0.00234 µM | 95.2 | 111 | 102
HPLM + 10% dialyzed FBS, 0.00702 µM | 105 | 111 | 103
HPLM + 10% dialyzed FBS, 0.0211 µM | 108 | 104 | 98.7
HPLM + 10% dialyzed FBS, 0.0632 µM | 99.2 | 104 | 102
HPLM + 10% dialyzed FBS, 0.19 µM | 105 | 100 | 94.9
HPLM + 10% dialyzed FBS, 0.569 µM | 86.7 | 100 | 97.7
HPLM + 10% dialyzed FBS, 1.71 µM | 100 | 101 | 94.1
HPLM + 10% dialyzed FBS, 5.12 µM | 100 | 102 | 91
HPLM + 10% dialyzed FBS, 15.4 µM | 102 | 82.4 | 88.7
HPLM + 10% dialyzed FBS, 46.1 µM | 73.7 | 81.9 | 84.8
RPMI 5 mM glucose + 10% FBS, 0.000781 µM | 122 | 98.5 | 96.6
RPMI 5 mM glucose + 10% FBS, 0.00234 µM | 120 | 98.8 | 98.7
RPMI 5 mM glucose + 10% FBS, 0.00702 µM | 120 | 95.2 | 95.8
RPMI 5 mM glucose + 10% FBS, 0.0211 µM | 116 | 98.8 | 104
RPMI 5 mM glucose + 10% FBS, 0.0632 µM | 119 | 95.7 | 98.7
RPMI 5 mM glucose + 10% FBS, 0.19 µM | 124 | 85.7 | 95.2
RPMI 5 mM glucose + 10% FBS, 0.569 µM | 124 | 103 | 82.2
RPMI 5 mM glucose + 10% FBS, 1.71 µM | 114 | 84.2 | 81.4
RPMI 5 mM glucose + 10% FBS, 5.12 µM | 116 | 84.1 | 85.9
RPMI 5 mM glucose + 10% FBS, 15.4 µM | 108 | 77.2 | 87.6
RPMI 5 mM glucose + 10% FBS, 46.1 µM | 96 | 77.6 | 74.4
RPMI 5 mM glucose + 10% dialyzed FBS, 0.000781 µM | 90.3 | 91.9 | 92.8
RPMI 5 mM glucose + 10% dialyzed FBS, 0.00234 µM | 107 | 92.4 | 96
RPMI 5 mM glucose + 10% dialyzed FBS, 0.00702 µM | 109 | 105 | 87.1
RPMI 5 mM glucose + 10% dialyzed FBS, 0.0211 µM | 106 | 104 | 93.7
RPMI 5 mM glucose + 10% dialyzed FBS, 0.0632 µM | 94.7 | 99.6 | 89.7
RPMI 5 mM glucose + 10% dialyzed FBS, 0.19 µM | 112 | 93.5 | 84.5
RPMI 5 mM glucose + 10% dialyzed FBS, 0.569 µM | 94.6 | 85.6 | 84.5
RPMI 5 mM glucose + 10% dialyzed FBS, 1.71 µM | 90.1 | 84 | 78.2
RPMI 5 mM glucose + 10% dialyzed FBS, 5.12 µM | 90.7 | 78.1 | 81.2
RPMI 5 mM glucose + 10% dialyzed FBS, 15.4 µM | 86.4 | 83.7 | 81.3
RPMI 5 mM glucose + 10% dialyzed FBS, 46.1 µM | 65.3 | 81.5 | 69
